Measurements from patent US20080200454A1, “CARBON-LINKED TETRAHYDRO-PYRAZOLO-PYRIDINE MODULATORS OF CATHEPSIN S” (priority 2007, published 2008).
pIC50: −log10 of the molar value. Where two headings read alike, the source gives them in different places.

Biological target: Recombinant human cathepsin S (CatS) (Homo sapiens, UniProt P25774)
Test: Recombinant human cathepsin S (CatS) inhibition assay, fluorogenic substrate Z-Valine-Valine-Arginine-AMC;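 further: Baculovirus-expressed CatS in pH 5.0 sodium acetate buffer with DTT and NaCl, fluorescence read each minute over 20 min, inhibition derived from rate slope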

Chain of Recombinant human cathepsin S (CatS) (P25774 115-331): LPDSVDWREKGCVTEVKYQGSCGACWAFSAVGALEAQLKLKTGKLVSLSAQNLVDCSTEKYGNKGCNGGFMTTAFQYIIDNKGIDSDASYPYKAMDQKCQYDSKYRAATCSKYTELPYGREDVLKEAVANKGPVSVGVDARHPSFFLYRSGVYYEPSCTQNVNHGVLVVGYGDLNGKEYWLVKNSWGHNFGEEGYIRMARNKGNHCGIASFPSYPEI

pIC50	Structure (SMILES)	pIC50 (CatS IC50)
–	CS(=O)(=O)N1CCc2c(c(-c3ccc(Cl)c(C#Cc4ccc5c(c4)CN[C@@H](CO)C5)c3)nn2CCCN2CCOCC2)C1 [Example 201, [(3R)-7-({2-Chloro-5-[5-(methylsulfonyl)-1-(3-morpholin-4-ylpropyl)-4,5,6,7-tetrahydro-1H-pyrazolo[4,3-c]pyridin-3-yl]phenyl}ethynyl)-1,2,3,4-tetrahydroisoquinolin-3-yl]methanol]	6.72
6.41	CS(=O)(=O)N1CCc2c(c(-c3ccc(Cl)c(C#Cc4ccc5c(c4)CN[C@@H](C(=O)O)C5)c3)nn2CCCN2CCOCC2)C1 [Example 202, (3R)-7-({2-Chloro-5-[5-(methylsulfonyl)-1-(3-morpholin-4-ylpropyl)-4,5,6,7-tetrahydro-1H-pyrazolo[4,3-c]pyridin-3-yl]phenyl}ethynyl)-1,2,3,4-tetrahydroisoquinoline-3-carboxylic acid]	–
6.24	COC(=O)C1Cc2cc(C#Cc3cc(-c4nn(CCCN5CCOCC5)c5c4CN(S(C)(=O)=O)CC5)ccc3Cl)ccc2CN1C(=O)OC(C)(C)C (stereo not shown) [Example 203, 2-(1,1-Dimethylethyl) 3-methyl 6-({2-chloro-5-[5-(methylsulfonyl)-1-(3-morpholin-4-ylpropyl)-4,5,6,7-tetrahydro-1H-pyrazolo[4,3-c]pyridin-3-yl]phenyl}ethynyl)-3,4-dihydroisoquinoline-2,3(1H)-dicarboxylate]	–
6.92	CS(=O)(=O)N1CCc2c(c(-c3ccc(Cl)c(C#Cc4ccc5c(c4)CC(C(=O)N4CCCCC4)NC5)c3)nn2CCCN2CCOCC2)C1 (stereo not shown) [Example 204, 6-({2-Chloro-5-[5-(methylsulfonyl)-1-(3-morpholin-4-ylpropyl)-4,5,6,7-tetrahydro-1H-pyrazolo[4,3-c]pyridin-3-yl]phenyl}ethynyl)-3-(piperidin-1-ylcarbonyl)-1,2,3,4-tetrahydroisoquinoline]	–
6.57	COC(=O)C1Cc2cc(C#Cc3cc(-c4nn(CCCN5CCOCC5)c5c4CN(S(C)(=O)=O)CC5)ccc3Cl)ccc2CN1 (stereo not shown) [Example 205, Methyl 6-({2-chloro-5-[5-(methylsulfonyl)-1-(3-morpholin-4-ylpropyl)-4,5,6,7-tetrahydro-1H-pyrazolo[4,3-c]pyridin-3-yl]phenyl}ethynyl)-1,2,3,4-tetrahydroisoquinoline-3-carboxylate]	–
6.68	CS(=O)(=O)N1CCc2c(c(-c3ccc(Cl)c(C#Cc4ccc5c(c4)CC(CO)NC5)c3)nn2CCCN2CCOCC2)C1 (stereo not shown) [Example 206, [6-({2-Chloro-5-[5-(methylsulfonyl)-1-(3-morpholin-4-ylpropyl)-4,5,6,7-tetrahydro-1H-pyrazolo[4,3-c]pyridin-3-yl]phenyl}ethynyl)-1,2,3,4-tetrahydroisoquinolin-3-yl]methanol]	–
5.54	COC(=O)C1c2ccc(C#Cc3cc(-c4nn(CCCN5CCOCC5)c5c4CN(S(C)(=O)=O)CC5)ccc3Cl)cc2CCN1C(=O)OC(C)(C)C (stereo not shown) [Example 207, 2-(1,1-Dimethylethyl) 1-methyl 6-({2-chloro-5-[5-(methylsulfonyl)-1-(3-morpholin-4-ylpropyl)-4,5,6,7-tetrahydro-1H-pyrazolo[4,3-c]pyridin-3-yl]phenyl}ethynyl)-3,4-dihydroisoquinoline-1,2(1H)-dicarboxylate]	–
5.50	COC(=O)C1NCCc2cc(C#Cc3cc(-c4nn(CCCN5CCOCC5)c5c4CN(S(C)(=O)=O)CC5)ccc3Cl)ccc21 (stereo not shown) [Example 208, Methyl 6-({2-chloro-5-[5-(methylsulfonyl)-1-(3-morpholin-4-ylpropyl)-4,5,6,7-tetrahydro-1H-pyrazolo[4,3-c]pyridin-3-yl]phenyl}ethynyl)-1,2,3,4-tetrahydroisoquinoline-1-carboxylate]	–
–	CS(=O)(=O)N1CCc2c(c(-c3ccc(Cl)c(C#Cc4ccc(CN[C@@H](CO)c5ccccc5)cc4)c3)nn2CCCN2CCOCC2)C1 [Example 209, (2R)-2-({[4-({2-Chloro-5-[5-(methylsulfonyl)-1-(3-morpholin-4-ylpropyl)-4,5,6,7-tetrahydro-1H-pyrazolo[4,3-c]pyridin-3-yl]phenyl}ethynyl)phenyl]methyl}amino)-2-phenylethanol]	7.00
6.96	COC(=O)[C@H](NCc1ccc(C#Cc2cc(-c3nn(CCCN4CCOCC4)c4c3CN(S(C)(=O)=O)CC4)ccc2Cl)cc1)c1ccccc1 [Example 211, Methyl (2R)-({[4-({2-chloro-5-[5-(methylsulfonyl)-1-(3-morpholin-4-ylpropyl)-4,5,6,7-tetrahydro-1H-pyrazolo[4,3-c]pyridin-3-yl]phenyl}ethynyl)phenyl]methyl}amino)(phenyl)ethanoate]	–
7.10	CS(=O)(=O)N1CCc2c(c(-c3ccc(Cl)c(C#Cc4ccc(CNCc5ccc(Cl)c(Cl)c5)cc4)c3)nn2CCCN2CCOCC2)C1 [Example 212, 1-[4-({2-Chloro-5-[5-(methylsulfonyl)-1-(3-morpholin-4-ylpropyl)-4,5,6,7-tetrahydro-1H-pyrazolo[4,3-c]pyridin-3-yl]phenyl}ethynyl)phenyl]-N-[(3,4-dichlorophenyl)methyl]methanamine]	–
–	CS(=O)(=O)N1CCc2c(c(-c3ccc(Cl)c(C#Cc4ccc(CN[C@@H]5Cc6ccccc6[C@@H]5O)cc4)c3)nn2CCCN2CCN(c3ccccn3)CC2)C1 [Example 213, (1S,2R)-2-[({4-[(2-Chloro-5-{5-(methylsulfonyl)-1-[3-(4-pyridin-2-ylpiperazin-1-yl)propyl]-4,5,6,7-tetrahydro-1H-pyrazolo[4,3-c]pyridin-3-yl}phenyl)ethynyl]phenyl}methyl)amino]-2,3-dihydro-1H-inden-1-ol]	7.70
–	CS(=O)(=O)N1CCc2c(c(-c3ccc(Cl)c(C#Cc4ccc(CN[C@H]5CCCc6ccccc65)cc4)c3)nn2CCCN2CCN(c3ccccn3)CC2)C1 [Example 216, (1S)—N-({4-[(2-Chloro-5-{5-(methylsulfonyl)-1-[3-(4-pyridin-2-ylpiperazin-1-yl)propyl]-4,5,6,7-tetrahydro-1H-pyrazolo[4,3-c]pyridin-3-yl}phenyl)ethynyl]phenyl}methyl)-1,2,3,4-tetrahydronaphthalen-1-amine]	7.15
7.52	CS(=O)(=O)N1CCc2c(c(-c3ccc(Cl)c(C#Cc4ccc(CN[C@H](CO)c5ccccc5)cc4)c3)nn2CCCN2CCN(c3ccccn3)CC2)C1 [Example 218, (2S)-2-[({4-[(2-Chloro-5-{5-(methylsulfonyl)-1-[3-(4-pyridin-2-ylpiperazin-1-yl)propyl]-4,5,6,7-tetrahydro-1H-pyrazolo[4,3-c]pyridin-3-yl}phenyl)ethynyl]phenyl}methyl)amino]-2-phenylethanol]	–
7.40	CC(NCc1ccc(C#Cc2cc(-c3nn(CCCN4CCN(c5ccccn5)CC4)c4c3CN(S(C)(=O)=O)CC4)ccc2Cl)cc1)c1ccccc1 (stereo not shown) [Example 219, N-({4-[(2-Chloro-5-{5-(methylsulfonyl)-1-[3-(4-pyridin-2-ylpiperazin-1-yl)propyl]-4,5,6,7-tetrahydro-1H-pyrazolo[4,3-c]pyridin-3-yl}phenyl)ethynyl]phenyl}methyl)-1-phenylethanamine]	–
–	C[C@@H]1COCCN1CCCn1nc(-c2ccc(Cl)c(C#Cc3ccc(Cl)c(CNCCCO)c3)c2)c2c1CCN(C(N)=O)C2 [Example 222, 3-(4-Chloro-3-{4-chloro-3-[(3-hydroxy-propylamino)-methyl]-phenylethynyl}-phenyl)-1-[3-(3-methyl-morpholin-4-yl)-propyl]-1,4,6,7-tetrahydro-pyrazolo[4,3-c]pyridine-5-carboxylic acid amide]	7.70
8.00	CS(=O)(=O)N1CCc2c(c(-c3ccc(Cl)c(C#Cc4ccc5c(c4)CNCC5)c3)nn2CCCN2CCN(c3ccccc3)CC2)C1 [Example 225, 7-[(2-Chloro-5-{5-(methylsulfonyl)-1-[3-(4-phenylpiperazin-1-yl)propyl]-4,5,6,7-tetrahydro-1H-pyrazolo[4,3-c]pyridin-3-yl}phenyl)ethynyl]-1,2,3,4-tetrahydroisoquinoline]	–
7.52	CN1CCc2ccc(C#Cc3cc(-c4nn(CCCN5CCN(c6ccccc6)CC5)c5c4CN(S(C)(=O)=O)CC5)ccc3Cl)cc2C1 [Example 226, 7-[(2-Chloro-5-{5-(methylsulfonyl)-1-[3-(4-phenylpiperazin-1-yl)propyl]-4,5,6,7-tetrahydro-1H-pyrazolo[4,3-c]pyridin-3-yl}phenyl)ethynyl]-2-methyl-1,2,3,4-tetrahydroisoquinoline]	–
–	CC(=O)NC1CCN(CCCn2nc(-c3ccc(Cl)c(C#Cc4ccc5c(c4)CNCC5)c3)c3c2CCN(S(C)(=O)=O)C3)CC1 [Example 227, N-[1-(3-{3-[4-Chloro-3-(1,2,3,4-tetrahydroisoquinolin-7-ylethynyl)phenyl]-5-(methylsulfonyl)-4,5,6,7-tetrahydro-1H-pyrazolo[4,3-c]pyridin-1-yl}propyl)piperidin-4-yl]acetamide]	7.40
7.05	CS(=O)(=O)N1CCc2c(c(-c3ccc(Cl)c(CCc4ccc5c(c4)CNCC5)c3)nn2CCCN2CCCCC2)C1 [Example 228, 7-(2-{2-Chloro-5-[5-(methylsulfonyl)-1-(3-piperidin-1-ylpropyl)-4,5,6,7-tetrahydro-1H-pyrazolo[4,3-c]pyridin-3-yl]phenyl}ethyl)-1,2,3,4-tetrahydroisoquinoline]	–
–	CS(=O)(=O)N1CCc2c(c(-c3ccc(Cl)c(CCc4ccc5c(c4)CNCC5)c3)nn2CCCN2CCN(C3CC3)CC2)C1 [Example 229, 7-[2-(2-Chloro-5-{1-[3-(4-cyclopropylpiperazin-1-yl)propyl]-5-(methylsulfonyl)-4,5,6,7-tetrahydro-1H-pyrazolo[4,3-c]pyridin-3-yl}phenyl)ethyl]-1,2,3,4-tetrahydroisoquinoline]	7.05
8.00	CC(C)(C)OC(=O)N1CCC(C2CCN(C[C@H](O)Cn3nc(-c4ccc(Cl)c(C#Cc5ccc(Cl)cc5)c4)c4c3CCN(S(C)(=O)=O)C4)CC2)CC1 [Example 230, 1,1-Dimethylethyl 1′-{(2S)-3-[3-{4-chloro-3-[(4-chlorophenyl)ethynyl]phenyl}-5-(methylsulfonyl)-4,5,6,7-tetrahydro-1H-pyrazolo[4,3-c]pyridin-1-yl]-2-hydroxypropyl}-4,4′-bipiperidine-1-carboxylate]	–
